pIC50: −log10 of the molar value. Read-outs that look alike come from different tables or passages of the source. Values belong to the molecule of their own block, whether it stands above or below them.
What was measured:
[1] = molecular target: T1, baculovirus-expressed ALK (Homo sapiens, UniProt Q9UM73); assay: ALK Kinase Assay (ELISA-type, time-resolved fluorescence); type: biochemical
T1 construct: host or cells: baculovirus expression system
Summary of the method: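 Substrate coating: phospholipase C-γ, 10 μg/mL in TBS. Kinase step: 30 ng/ml ALK, 15 min, 37° C. Detection and analysis: Eu-N1 PT66 antibody, with IC50 fitted as a sigmoidal variable-slope dose-response curve.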

[2] = molecular target: T2, c-Met (cytoplasmic domain) (Homo sapiens, UniProt P08581); assay: c-Met Kinase Assay (same methods as for ALK, with modifications); type: biochemical
T2 construct: 10 ng/mL c-Met (cytoplasmic domain, Invitrogen Corporation #PV3143); purchased Invitrogen Corporation PV3143
T2 sequence (P08581 956-1390 limits assumed): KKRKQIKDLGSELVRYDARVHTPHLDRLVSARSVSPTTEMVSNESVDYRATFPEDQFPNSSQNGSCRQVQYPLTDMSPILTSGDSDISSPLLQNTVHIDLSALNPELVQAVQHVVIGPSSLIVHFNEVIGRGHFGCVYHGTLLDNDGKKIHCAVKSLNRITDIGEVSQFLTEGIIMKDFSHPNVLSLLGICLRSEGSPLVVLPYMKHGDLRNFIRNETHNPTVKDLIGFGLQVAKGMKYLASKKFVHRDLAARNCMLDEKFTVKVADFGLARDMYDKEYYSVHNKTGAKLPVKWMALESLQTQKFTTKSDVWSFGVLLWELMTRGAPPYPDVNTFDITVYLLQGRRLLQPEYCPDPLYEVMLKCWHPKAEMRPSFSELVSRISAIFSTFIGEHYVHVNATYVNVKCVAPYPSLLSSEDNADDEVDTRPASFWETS
Summary of the method: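 This plate-based kinase format uses immobilized phospholipase C-γ as substrate, phosphorylated by c-Met cytoplasmic domain (10 ng/mL) at 37° C for 15 minutes.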

[3] = 1 μM ATP (Km level), 30 ng/ml ALK, 37° C., 15 minutes, read-out: ALK Activity (ALK kinase inhibition, IC50 class)
[4] = 1 μM ATP (Km level), 10 ng/mL c-Met, read-out: cMet Activity (c-Met kinase inhibition, IC50 class)
[5] = ALK kinase inhibition, 1 μM ATP, read-out: ALK Activity
[6] = c-Met kinase inhibition, 1 μM ATP, read-out: cMet Activity
[7] = ALK kinase inhibition, 1 μM ATP (Km level), read-out: ALK Activity
[8] = c-Met kinase inhibition, 1 μM ATP (Km level), read-out: cMet Activity
[9] = 1 μM ATP (Km level), read-out: ALK Activity (ALK Kinase Inhibition, IC50)
[10] = 1 μM ATP (Km level), read-out: cMet Activity (c-Met Kinase Inhibition, IC50)

T1 sequence (Q9UM73 19-1620): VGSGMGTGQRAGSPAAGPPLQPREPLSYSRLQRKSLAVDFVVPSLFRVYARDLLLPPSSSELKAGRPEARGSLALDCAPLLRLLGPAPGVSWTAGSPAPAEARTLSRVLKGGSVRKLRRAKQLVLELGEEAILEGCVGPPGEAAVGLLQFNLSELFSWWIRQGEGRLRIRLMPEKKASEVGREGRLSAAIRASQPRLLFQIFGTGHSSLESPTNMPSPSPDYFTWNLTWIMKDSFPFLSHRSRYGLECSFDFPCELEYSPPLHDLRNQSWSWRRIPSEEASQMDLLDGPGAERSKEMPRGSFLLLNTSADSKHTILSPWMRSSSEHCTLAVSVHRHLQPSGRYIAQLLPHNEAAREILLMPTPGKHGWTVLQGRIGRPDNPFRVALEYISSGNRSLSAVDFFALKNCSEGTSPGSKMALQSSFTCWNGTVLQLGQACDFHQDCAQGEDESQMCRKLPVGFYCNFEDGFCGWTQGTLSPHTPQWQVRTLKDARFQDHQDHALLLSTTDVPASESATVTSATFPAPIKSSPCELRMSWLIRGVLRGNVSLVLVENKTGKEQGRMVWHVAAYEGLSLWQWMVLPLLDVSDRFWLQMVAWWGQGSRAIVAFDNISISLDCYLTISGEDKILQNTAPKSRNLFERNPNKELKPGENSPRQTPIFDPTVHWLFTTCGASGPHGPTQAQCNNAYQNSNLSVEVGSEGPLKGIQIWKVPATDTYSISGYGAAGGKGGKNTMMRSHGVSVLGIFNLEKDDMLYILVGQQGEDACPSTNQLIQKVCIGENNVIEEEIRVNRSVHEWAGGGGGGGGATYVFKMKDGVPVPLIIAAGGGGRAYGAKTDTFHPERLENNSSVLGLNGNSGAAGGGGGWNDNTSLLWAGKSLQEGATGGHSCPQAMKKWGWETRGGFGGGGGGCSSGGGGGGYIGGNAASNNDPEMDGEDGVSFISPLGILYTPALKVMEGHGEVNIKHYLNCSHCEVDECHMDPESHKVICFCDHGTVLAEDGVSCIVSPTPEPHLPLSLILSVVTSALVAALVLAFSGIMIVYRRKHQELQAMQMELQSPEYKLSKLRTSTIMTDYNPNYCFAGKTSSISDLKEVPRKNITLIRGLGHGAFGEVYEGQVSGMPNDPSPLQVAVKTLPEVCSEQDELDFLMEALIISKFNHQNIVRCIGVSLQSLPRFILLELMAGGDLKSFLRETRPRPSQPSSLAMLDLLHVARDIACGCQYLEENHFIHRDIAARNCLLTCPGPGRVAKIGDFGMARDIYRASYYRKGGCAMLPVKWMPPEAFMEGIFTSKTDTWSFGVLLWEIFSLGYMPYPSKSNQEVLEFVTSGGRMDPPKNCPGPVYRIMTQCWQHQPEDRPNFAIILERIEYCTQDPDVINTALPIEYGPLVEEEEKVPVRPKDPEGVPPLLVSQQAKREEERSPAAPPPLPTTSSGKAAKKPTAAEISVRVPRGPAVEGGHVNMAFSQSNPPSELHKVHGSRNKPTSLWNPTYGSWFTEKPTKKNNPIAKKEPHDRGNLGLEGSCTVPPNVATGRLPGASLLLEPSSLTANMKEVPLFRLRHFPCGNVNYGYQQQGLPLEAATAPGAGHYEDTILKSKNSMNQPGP

pIC50 [1, 3]: > 7.00
pIC50 [2, 4]: < 5.00
SMILES: COCCNC1CCc2cc(Nc3ncc(Cl)c(Nc4ccccc4-n4cccn4)n3)c(OC)cc2CC1 (stereo not drawn) [Example 1085, 5-Chloro-N*2*-[3-methoxy-7-(2-methoxy-ethylamino)-6,7,8,9-tetrahydro-5H-benzocyclohepten-2-yl]-N*4*-(2-pyrazol-1-yl-phenyl)-pyrimidine-2,4-diamine]

pIC50 [1, 5]: > 7.00
pIC50 [2, 6]: 5.00 to 6.00
SMILES: COCCN1CCc2ccc(Nc3ncc(Cl)c(Nc4ccc(N5CCOCC5)cc4OCCC#N)n3)cc2CC1 [Example 1689, 3-(2-{5-Chloro-2-[3-(2-methoxy-ethyl)-2,3,4,5-tetrahydro-1H-benzo[d]azepin-7-ylamino]-pyrimidin-4-ylamino}-5-morpholin-4-yl-phenoxy)-propionitrile]

pIC50 [1, 7]: > 7.00
pIC50 [2, 8]: > 7.00
SMILES: CNC(=O)c1ccccc1Nc1nc(Nc2ccc3c(c2)C2CN(S(C)(=O)=O)CC3O2)ncc1Cl (single isomer, unassigned) [Example 183, 2-[5-Chloro-2-(10-methanesulfonyl-12-oxa-10-aza-tricyclo[6.3.1.0*2,7*]dodeca-2(7),3,5-trien-4-ylamino)-pyrimidin-4-ylamino]-N-methyl-benzamide]

pIC50 [1, 3]: 6.00 to 7.00
pIC50 [2, 4]: 6.00 to 7.00
SMILES: COCCN1CCc2ccc(Nc3ncc(Cl)c(Nc4ccccc4C(=O)NCCCN(C)C)n3)cc2CC1 [Example 1401, 2-{5-Chloro-2-[3-(2-methoxy-ethyl)-2,3,4,5-tetrahydro-1H-benzo[d]azepin-7-ylamino]-pyrimidin-4-ylamino}-N-(3-dimethylamino-propyl)-benzamide]

pIC50 [1, 5]: > 7.00
pIC50 [2, 6]: < 5.00
SMILES: COc1cc2c(cc1Nc1ncc(Cl)c(N[C@@H]3CCCC[C@H]3NS(C)(=O)=O)n1)CCN(CCN1CCOCC1)CC2 [Example 1533, N-((1R,2R)-2-{5-Chloro-2-[8-methoxy-3-(2-morpholin-4-yl-ethyl)-2,3,4,5-tetrahydro-1H-3-benzazepin-7-ylamino]-pyrimidin-4-ylamino}-cyclohexyl)-methanesulfonamide]

pIC50 [1, 3]: > 7.00
pIC50 [2, 4]: < 5.00
SMILES: COCCOC(=O)c1ccccc1Nc1nc(Nc2cc3c(cc2OC)CCC(NCCO)CC3)ncc1Cl (stereo not drawn) [Example 1093, 2-{5-Chloro-2-[7-(2-hydroxy-ethylamino)-3-methoxy-6,7,8,9-tetrahydro-5H-benzocyclohepten-2-ylamino]-pyrimidin-4-ylamino}-benzoic acid 2-methoxy-ethyl ester]

pIC50 [1, 5]: 6.00 to 7.00
pIC50 [2, 6]: > 7.00
SMILES: CNC(=O)c1cccc(F)c1Nc1nc(Nc2ccc3c(c2)N(C(C)=O)CCCC3(C)C)ncc1Cl [Example 1596, 2-[2-(1-Acetyl-5,5-dimethyl-2,3,4,5-tetrahydro-1H-benzo[b]azepin-8-ylamino)-5-chloro-pyrimidin-4-ylamino]-3-fluoro-N-methyl-benzamide]

pIC50 [1, 5]: 5.00 to 6.00
pIC50 [2, 6]: > 7.00
SMILES: CNC(=O)c1cccc(F)c1Nc1nc(Nc2ccc3c(c2)C(C)(C)NC(=O)CC3)ncc1Cl [Example 1831, 2-(5-Chloro-2-(1,1-dimethyl-3-oxo-2,3,4,5-tetrahydro-1H-benzo[c]azepin-8-ylamino)pyrimidin-4-ylamino)-3-fluoro-N-methylbenzamide]

pIC50 [1, 3]: 5.00 to 6.00
pIC50 [2, 4]: 5.00 to 6.00
SMILES: COCCN1CCc2ccc(Nc3ncc(Cl)c(Nc4c(F)cccc4OCC4CCOC4)n3)cc2CC1 (stereo not drawn) [Example 1275, 5-Chloro-N(4)-[2-fluoro-6-(tetrahydro-furan-3-ylmethoxy)-phenyl]-N(2)-[3-(2-methoxy-ethyl)-2,3,4,5-tetrahydro-1H-3-benzazepin-7-yl]-pyrimidine-2,4-diamine]

pIC50 [1, 7]: > 7.00
pIC50 [2, 8]: 6.00 to 7.00
SMILES: COC(CN1CCc2ccc(Nc3ncc(Cl)c(NC4C5C=CC(C5)C4C(N)=O)n3)cc2CC1)C(F)(F)F (mixture of isomers) [Example 338, (2-exo, 3-exo)-3-{5-Chloro-2-[3-((S)-3,3,3-trifluoro-2-methoxy-propyl)-2,3,4,5-tetrahydro-1H-benzo[d]azepin-7-ylamino]-pyrimidin-4-ylamino}-bicyclo[2.2.1]hept-5-ene-2-carboxylic acid amide]

pIC50 [1, 3]: > 7.00
pIC50 [2, 4]: < 5.00
SMILES: COc1ccc(Nc2nc(Nc3cc4c(cc3OC)CCN(CC(=O)N(C)C)CC4)ncc2Cl)c(S(=O)(=O)C(C)C)c1 [Example 1162, 2-(7-{5-Chloro-4-[4-methoxy-2-(propane-2-sulfonyl)-phenylamino]-pyrimidin-2-ylamino}-8-methoxy-1,2,4,5-tetrahydro-benzo[d]azepin-3-yl)-N,N-dimethyl-acetamide]

pIC50 [1, 9]: > 7.00
pIC50 [2, 10]: < 5.00
SMILES: CCN1CC(=O)N(C)c2cc(Nc3ncc(Cl)c(N[C@H]4[C@@H](C(N)=O)[C@@H]5C=C[C@H]4C5)n3)c(OC)cc2C1 [Example 741]

pIC50 [1, 5]: < 5.00
pIC50 [2, 6]: 5.00 to 6.00
SMILES: CN1C(=O)OCCc2cc(Nc3ncc(Cl)c(Nc4ccccc4-c4cc[nH]n4)n3)ccc21 [Example 1767, 2-{5-Chloro-4-[2-(1H-pyrazol-3-yl)-phenylamino]-pyrimidin-2-ylamino}-5-methyl-8,9-dihydro-5H-7-oxa-5-aza-benzocyclohepten-6-one]

pIC50 [1, 9]: 6.00 to 7.00
pIC50 [2, 10]: < 5.00
SMILES: CCNC(=O)c1cccc(F)c1Nc1nc(Nc2cccc3c2OCCCC3(C)C)ncc1Cl [Example 874, 2-[5-Chloro-2-(5,5-dimethyl-2,3,4,5-tetrahydro-benzo[b]oxepin-9-ylamino)-pyrimidin-4-ylamino]-N-ethyl-3-fluoro-benzamide]

pIC50 [1, 7]: 6.00 to 7.00
pIC50 [2, 8]: < 5.00
SMILES: CCN1CCc2ccc(Nc3ncc(Cl)c(N[C@@H]4CCCC[C@H]4O)n3)cc2CC1 (relative stereo) [Example 319, trans-2-[5-Chloro-2-(3-ethyl-2,3,4,5-tetrahydro-1H-benzo[d]azepin-7-ylamino)-pyrimidin-4-ylamino]-cyclohexanol]

pIC50 [1, 7]: > 7.00
pIC50 [2, 8]: 6.00 to 7.00
SMILES: CNS(=O)(=O)c1ccccc1Nc1nc(Nc2ccc3c(c2)C2CC3CN(C(C)C)C2)ncc1Cl (stereo not drawn) [Example 159, 2-[5-Chloro-2-(10-isopropyl-10-aza-tricyclo[6.3.1.0*2,7*]dodeca-2,4,6-trien-4-ylamino)-pyrimidin-4-ylamino]-N-methyl-benzenesulfonamide]

SMILES: COc1c(Nc2ncc(Cl)c(N[C@@H]3CCCC[C@H]3NS(C)(=O)=O)n2)ccc2c1C1CCC(C2)N1 (stereo partly drawn) [Example 92, N-{(1R,2R)-2-[5-Chloro-2-(3-methoxy-12-aza-tricyclo[7.2.1.0*2,7*]dodeca-2(7),3,5-trien-4-ylamino)-pyrimidin-4-ylamino]-cyclohexyl}-methanesulfonamide]
pIC50 [1, 7]: 5.00 to 6.00
pIC50 [2, 8]: < 5.00

pIC50 [1, 9]: > 7.00
pIC50 [2, 10]: > 7.00
SMILES: CNC(=O)c1ccccc1Nc1nc(Nc2ccc3c(c2)NC(=O)CCC3)ncc1Cl [Example 513, 2-[5-Chloro-2-(2-oxo-2,3,4,5-tetrahydro-1H-benzo[b]azepin-8-ylamino)-pyrimidin-4-ylamino]-N-methyl benzamide]

pIC50 [1, 7]: > 7.00
pIC50 [2, 8]: 5.00 to 6.00
SMILES: CNC(=O)c1ccccc1Nc1nc(Nc2cc3c(cc2OC)CCN(CCOC)CC3)ncc1Br [Example 198, 2-{5-Bromo-2-[8-methoxy-3-(2-methoxy-ethyl)-2,3,4,5-tetrahydro-1H-benzo[d]azepin-7-ylamino]-pyrimidin-4-ylamino}-N-methyl-benzamide]

pIC50 [1, 9]: > 7.00
pIC50 [2, 10]: > 7.00
SMILES: CNC(=O)c1cccc(F)c1Nc1nc(Nc2ccc3c(c2)CCN(C(=O)C2COCCO2)CC3)ncc1Cl (stereo not drawn) [Example 639, 2-{5-Chloro-2-[3-([1,4]dioxane-2-carbonyl)-2,3,4,5-tetrahydro-1H-benzo[d]azepin-7-ylamino]-pyrimidin-4-ylamino}-3-fluoro-N-methyl-benzamide]

pIC50 [1, 5]: > 7.00
pIC50 [2, 6]: > 7.00
SMILES: CNC(=O)c1ccccc1Nc1nc(Nc2ccc3c(c2)CCC(=O)NC3(C)C)ncc1Cl [Example 1827, 2-(5-Chloro-2-(1,1-dimethyl-3-oxo-2,3,4,5-tetrahydro-1H-benzo[c]azepin-7-ylamino)pyrimidin-4-ylamino)-N-methylbenzamide]

pIC50 [1, 7]: > 7.00
pIC50 [2, 8]: 6.00 to 7.00
SMILES: CS(=O)(=O)N[C@@H]1CCCC[C@H]1Nc1nc(Nc2ccc3c(c2)CCC(=O)CC3)ncc1Cl [Example 174, N-{(1R,2R)-2-[5-Chloro-2-(7-oxo-6,7,8,9-tetrahydro-5H-benzocyclohepten-2-ylamino)-pyrimidin-4-ylamino]-cyclohexyl}-methanesulfonamide]

pIC50 [1, 5]: > 7.00
pIC50 [2, 6]: 5.00 to 6.00
SMILES: COc1cc2c(cc1Nc1ncc(Cl)c(Nc3ccccc3S(=O)(=O)N(C)C)n1)CCN(CC(C)O)CC2 (stereo not drawn) [Example 1547, 2-{5-Chloro-2-[3-(2-hydroxy-propyl)-8-methoxy-2,3,4,5-tetrahydro-1H-3-benzazepin-7-ylamino]-pyrimidin-4-ylamino}-N,N-dimethyl-benzenesulfonamide]

pIC50 [1, 5]: 5.00 to 6.00
pIC50 [2, 6]: 6.00 to 7.00
SMILES: CNC(=O)c1cccc(Cl)c1Nc1nc(Nc2ccc3c(c2)CC(=O)N(C)CC3)ncc1Cl [Example 1817, 3-Chloro-2-[5-chloro-2-(3-methyl-4-oxo-2,3,4,5-tetrahydro-1H-benzo[d]azepin-7-ylamino)-pyrimidin-4-ylamino]-N-methylbenzamide]
